Laboratory results taken from patent US8383581B2, “Short-chain peptides as parathyroid hormone (PTH) receptor agonist” (Cadila Healthcare Limited, priority 2009, dated 2013).
Where a SMILES comes first, the peptide text is derived from it. [ ]: non-standard residue; d: D form. ξ: configuration not given here. ξαMeBip(2'-Et,4'-OMe) = CCc1cc(OC)ccc1-c1ccc(CC(C)(N)C(=O)O)cc1; ξBip(2'-Et-4'-OMe) = CCc1cc(OC)ccc1-c1ccc(CC(N)C(=O)O)cc1; Arg(NO2) = N=C(NCCC[C@H](N)C(=O)O)N[N+](=O)[O-]; ξαMePhe(2,6-F2) = CC(N)(Cc1c(F)cccc1F)C(=O)O; ξαMePhe(2-F) = CC(N)(Cc1ccccc1F)C(=O)O; hhPhe = N[C@@H](CCCc1ccccc1)C(=O)O; hArg = N=C(N)NCCCC[C@H](N)C(=O)O; hCit = NC(=O)NCCCC[C@H](N)C(=O)O; Cit = NC(=O)NCCC[C@H](N)C(=O)O; Nle = CCCC[C@H](N)C(=O)O; ξαMeP = CC1(C(=O)O)CCCN1; Ac5c = NC1(C(=O)O)CCCC1; Ac3c = NC1(C(=O)O)CC1; Aib = CC(C)(N)C(=O)O

What was measured:
Type in all cases: in vitro ADME
[1] = Stability of peptides in human plasma; details: human, plasma; for metabolised at 24 h, 2 μM: pH 7.8
Protocol: (§1) b) Stability of Peptides in Human Plasma, Simulated Gastric Fluid, Intestinal Fluid and Liver Microsomes (Ex-Vivo): Different short-chain peptides (final concentration 2 μM) were incubated with either pooled human plasma (7.5 μL) or simulated gastric fluid (pH 1.5; composition HCl, NaCl and Pepsin) or simulated intestinal fluid (pH 7.5) or human liver microsomes, for 0, 2, 4, 6, 12 and 24 h (37° C.; 50 mM triethanolamine-HCl buffer; pH 7.8). Concentrations of human plasma/simulated gastric fluid/simulated intestinal fluid/human liver microsomes were selected in preliminary experiments to provide degradation of approximately 50% of PTH(1-34) within 1 h, therefore allowing time-dependent degradation to be viewed over 24 h. Reactions were terminated by the addition of TFA/H2O ([…], 10% (v/v)). The reaction products were then applied to a Vydac C18 analytical column (4.6×250-mm) and the major degradation fragment separated from intact short-chain peptides. The column was equilibrated with TFA/H20, at a flow rate of 1 mL/min. Using 0.1% (v/v) TFA in 70% acetonitrile/H2O, the concentration of acetonitrile in the eluting solvent was raised from 0% to 28% over 10 min and from 28% to 42% over 30 min. The absorbance was monitored at 206 nm using UV detector and peaks were collected manually prior to ESI-MS analysis. Area under the curve was measured for test peptides and their metabolites and percentage degradation were calculated at each time point over a period of 24 h. Stability study results of selected peptides, in human plasma, simulated gastric fluid, intestinal fluid and liver microsomes (in vitro) are listed in Table 4.

[2] = Stability of peptides in simulated gastric fluid (pH 1.5; HCl, NaCl and Pepsin); details: pH 1.5; for % degradation of peptides in 24 h when incubated with simulated gastric fluid: 2 μM; for half-life / half-life (t1/2) in simulated gastric fluid: simulated gi fluid
Protocol: as §1

[3] = Stability of peptides in simulated intestinal fluid (pH 7.5); details: pH 7.5; for half-life / half-life (t1/2) in simulated intestinal fluid: simulated gi fluid; for % degradation of peptides in 24 h when incubated with simulated intestinal fluid: 2 μM
Protocol: as §1

[4] = Stability of peptides in human liver microsomes; details: human, microsomes; for % degradation of peptides in 24 h when incubated with liver microsomes: 2 μM, pH 7.8
Protocol: as §1

| Compound | half-life [1] [h] | metabolised at 24 h, 2 μM [1] [%] | % degradation of peptides in 24 h when incubated with simulated gastric fluid [2] [%] | half-life [2] [h] | half-life [3] [h] | % degradation of peptides in 24 h when incubated with simulated intestinal fluid [3] [%] | half-life (t1/2) in liver microsomes [4] | % degradation of peptides in 24 h when incubated with liver microsomes [4] [%] | half-life [4] [h] | half-life (t1/2) in simulated gastric fluid [2] | half-life (t1/2) in simulated intestinal fluid [3] | half-life (t1/2) in human plasma [1] |
| --- | --- | --- | --- | --- | --- | --- | --- | --- | --- | --- | --- | --- |
| CCCC[C@H](NC(=O)C(C)(Cc1ccccc1F)NC(=O)[C@H](CCC(N)=O)NC(=O)[C@@H](NC(=O)[C@H](CCC(=O)O)NC(=O)C(C)(C)NC(=O)[C@@H](NC(=O)C(C)(C)N)C(C)C)[C@@H](C)CC)C(=O)N[C@@H](Cc1c[nH]cn1)C(=O)N[C@@H](CCC(N)=O)C(=O)N[C@@H](CCCCNC(=N)N)C(=O)N1CCCC1(C)C(=O)N[C@@H](CCCCN)C(=O)NC(C)(Cc1ccccc1F)C(N)=O (stereo partly drawn) [Seq. ID. 56] (H-[Aib]V[Aib]EIQ[ξαMePhe(2-F)][Nle]HQ[hArg][ξαMeP]K[ξαMePhe(2-F)]-NH2) | > 24 | 0 | 00 | > 24 | > 24 | 00 | (5) h | 32 |  |  |  |  |
| CCCC[C@H](NC(=O)[C@H](CC(C)C)NC(=O)[C@H](CCC(N)=O)NC(=O)[C@@H](NC(=O)[C@H](CCC(=O)O)NC(=O)C1(NC(=O)[C@@H](NC(=O)C2(N)CC2)C(C)C)CC1)[C@@H](C)CC)C(=O)N[C@@H](Cc1c[nH]cn1)C(=O)N[C@@H](CCC(N)=O)C(=O)N[C@@H](CCCCNC(=N)N)C(=O)N[C@@H](C)C(=O)N[C@@H](CCCNC(=N)N[N+](=O)[O-])C(=O)NC(Cc1ccc(-c2ccc(OC)cc2CC)cc1)C(=O)N[C@@H](CCCc1ccccc1)C(N)=O (stereo partly drawn) [Seq. ID. 690] (H-[Ac3c]V[Ac3c]EIQL[Nle]HQ[hArg]A[Arg(NO2)][ξBip(2'-Et-4'-OMe)][hhPhe]-NH2) | 8 | 70 | 12 |  |  | 42 |  | 78 | 1 | (8) h | (6) h |  |
| CCCC[C@H](NC(=O)C(C)(Cc1ccccc1F)NC(=O)[C@H](CCC(N)=O)NC(=O)[C@@H](NC(=O)[C@H](CCC(=O)O)NC(=O)C(C)(C)NC(=O)[C@@H](NC(=O)C(C)(C)N)C(C)C)[C@@H](C)CC)C(=O)N[C@@H](Cc1c[nH]cn1)C(=O)N[C@@H](CCC(N)=O)C(=O)N[C@@H](CCCNC(N)=O)C(=O)N[C@@H](C)C(=O)N[C@@H](CCCNC(N)=O)C(=O)NC(C)(Cc1ccccc1F)C(N)=O (stereo partly drawn) [Seq. ID. 345] (H-[Aib]V[Aib]EIQ[ξαMePhe(2-F)][Nle]HQ[Cit]A[Cit][ξαMePhe(2-F)]-NH2) |  | 70 | 100 | 0.5 | 0.5 | 100 |  | 100 | 0.5 |  |  | (9) h |
| CCCC[C@H](NC(=O)C(C)(Cc1ccccc1F)NC(=O)[C@H](CCC(N)=O)NC(=O)[C@@H](NC(=O)[C@H](CCC(=O)O)NC(=O)C(C)(C)NC(=O)[C@@H](NC(=O)C1(N)CCCC1)C(C)C)[C@@H](C)CC)C(=O)N[C@@H](Cc1c[nH]cn1)C(=O)N[C@@H](CCC(N)=O)C(=O)NC(C)(C)C(=O)NC(C)(C)C(=O)NC(C)(Cc1c(F)cccc1F)C(=O)NC(C)(Cc1c(F)cccc1F)C(N)=O (stereo partly drawn) [Seq. ID. 580] (H-[Ac5c]V[Aib]EIQ[ξαMePhe(2-F)][Nle]HQ[Aib][Aib][ξαMePhe(2,6-F2)][ξαMePhe(2,6-F2)]-NH2) | 8 | 75 | 12 |  |  | 46 |  | 83 | 1 | (8) h | (6) h |  |
| CCCC[C@H](NC(=O)C(C)(Cc1c(F)cccc1F)NC(=O)[C@H](CCC(N)=O)NC(=O)[C@@H](NC(=O)[C@H](CCC(=O)O)NC(=O)C(C)(C)NC(=O)[C@@H](NC(=O)C1(N)CCCC1)C(C)C)[C@@H](C)CC)C(=O)N[C@@H](Cc1c[nH]cn1)C(=O)N[C@@H](CCC(N)=O)C(=O)N[C@@H](CCCCNC(=N)N)C(=O)NC(C)(C)C(=O)NC(C)(Cc1c(F)cccc1F)C(=O)NC(C)(Cc1c(F)cccc1F)C(N)=O (stereo partly drawn) [Seq. ID. 240] (H-[Ac5c]V[Aib]EIQ[ξαMePhe(2,6-F2)][Nle]HQ[hArg][Aib][ξαMePhe(2,6-F2)][ξαMePhe(2,6-F2)]-NH2) | 8 | 71 | 14 |  |  | 40 |  | 78 | 1 | (8) h | (6) h |  |
| CCCC[C@H](NC(=O)C(C)(Cc1c(F)cccc1F)NC(=O)[C@H](CCC(N)=O)NC(=O)[C@@H](NC(=O)[C@H](CCC(=O)O)NC(=O)C(C)(C)NC(=O)[C@@H](NC(=O)C1(N)CCCC1)C(C)C)[C@@H](C)CC)C(=O)N[C@@H](Cc1c[nH]cn1)C(=O)N[C@@H](CCC(N)=O)C(=O)N[C@@H](CCCCNC(N)=O)C(=O)NC(C)(C)C(=O)NC(C)(C)C(=O)NC(C)(Cc1c(F)cccc1F)C(N)=O (stereo partly drawn) [Seq. ID. 440] (H-[Ac5c]V[Aib]EIQ[ξαMePhe(2,6-F2)][Nle]HQ[hCit][Aib][Aib][ξαMePhe(2,6-F2)]-NH2) | > 24 | 0 | 43 | 4 | > 24 | 00 |  | 84 | 2 |  |  |  |

The next lines start with the values.

| half-life [1] [h] | metabolised at 24 h, 2 μM [1] [%] | % degradation of peptides in 24 h when incubated with simulated gastric fluid [2] [%] | half-life [2] [h] | half-life [3] [h] | % degradation of peptides in 24 h when incubated with simulated intestinal fluid [3] [%] | half-life (t1/2) in liver microsomes [4] | % degradation of peptides in 24 h when incubated with liver microsomes [4] [%] | half-life [4] [h] | half-life (t1/2) in simulated gastric fluid [2] | half-life (t1/2) in simulated intestinal fluid [3] | half-life (t1/2) in human plasma [1] | Compound |
| --- | --- | --- | --- | --- | --- | --- | --- | --- | --- | --- | --- | --- |
| > 24 | 0 | 00 | > 24 | > 24 | 00 | (5) h | 32 |  |  |  |  | CCc1cc(OC)ccc1-c1ccc(CC(C)(NC(=O)[C@H](CCCCN)NC(=O)[C@H](C)NC(=O)[C@H](CCCCNC(=N)N)NC(=O)[C@H](CCC(N)=O)NC(=O)[C@H](Cc2c[nH]cn2)NC(=O)[C@H](CCSC)NC(=O)[C@H](CC(C)C)NC(=O)[C@H](CCC(N)=O)NC(=O)[C@@H](NC(=O)[C@H](CCC(=O)O)NC(=O)C(C)(C)NC(=O)[C@@H](NC(=O)C(C)(C)N)C(C)C)[C@@H](C)CC)C(=O)N[C@@H](CCCc2ccccc2)C(N)=O)cc1 (stereo partly drawn) [Seq. ID. 890] (H-[Aib]V[Aib]EIQLMHQ[hArg]AK[ξαMeBip(2'-Et,4'-OMe)][hhPhe]-NH2) |
| > 20 | 10 | 50 | 4 | > 24 | 00 |  | 86 | 2 |  |  |  | CCCC[C@H](NC(=O)C(C)(Cc1c(F)cccc1F)NC(=O)[C@H](CCC(N)=O)NC(=O)[C@@H](NC(=O)[C@H](CCC(=O)O)NC(=O)C1(NC(=O)[C@@H](NC(=O)C(C)(C)N)C(C)C)CC1)[C@@H](C)CC)C(=O)N[C@@H](Cc1c[nH]cn1)C(=O)N[C@@H](CCC(N)=O)C(=O)N[C@@H](CCCCNC(=N)N)C(=O)N[C@@H](C)C(=O)N[C@@H](CCCNC(=N)N[N+](=O)[O-])C(=O)NC(C)(Cc1ccccc1F)C(=O)N[C@@H](CCCc1ccccc1)C(N)=O (stereo partly drawn) [Seq. ID. 720] (H-[Aib]V[Ac3c]EIQ[ξαMePhe(2,6-F2)][Nle]HQ[hArg]A[Arg(NO2)][ξαMePhe(2-F)][hhPhe]-NH2) |
| > 24 | 0 | 49 | 4 | > 24 | 00 |  | 82 | 2 |  |  |  | CCCC[C@H](NC(=O)[C@H](CC(C)C)NC(=O)[C@H](CCC(N)=O)NC(=O)[C@@H](NC(=O)[C@H](CCC(=O)O)NC(=O)C(C)(C)NC(=O)[C@@H](NC(=O)C1(N)CCCC1)C(C)C)[C@@H](C)CC)C(=O)N[C@@H](Cc1c[nH]cn1)C(=O)N[C@@H](CCC(N)=O)C(=O)NC(C)(Cc1c(F)cccc1F)C(=O)NC(C)(C)C(=O)N[C@@H](CCCNC(N)=O)C(=O)NC(Cc1ccc(-c2ccc(OC)cc2CC)cc1)C(=O)N[C@@H](CCCc1ccccc1)C(N)=O (stereo partly drawn) [Seq. ID. 805] (H-[Ac5c]V[Aib]EIQL[Nle]HQ[ξαMePhe(2,6-F2)][Aib][Cit][ξBip(2'-Et-4'-OMe)][hhPhe]-NH2) |
